# From ChEMBL document CHEMBL3588827, “A new class of ghrelin O-acyltransferase inhibitors incorporating triazole-linked lipid mimetic groups” (Bioorg Med Chem Lett, 2015)
# Biological target: T1, Membrane-bound ghrelin O-acyltransferase MBOAT4 (Homo sapiens, UniProt Q96T53)
# T1 sequence (Q96T53 whole entry): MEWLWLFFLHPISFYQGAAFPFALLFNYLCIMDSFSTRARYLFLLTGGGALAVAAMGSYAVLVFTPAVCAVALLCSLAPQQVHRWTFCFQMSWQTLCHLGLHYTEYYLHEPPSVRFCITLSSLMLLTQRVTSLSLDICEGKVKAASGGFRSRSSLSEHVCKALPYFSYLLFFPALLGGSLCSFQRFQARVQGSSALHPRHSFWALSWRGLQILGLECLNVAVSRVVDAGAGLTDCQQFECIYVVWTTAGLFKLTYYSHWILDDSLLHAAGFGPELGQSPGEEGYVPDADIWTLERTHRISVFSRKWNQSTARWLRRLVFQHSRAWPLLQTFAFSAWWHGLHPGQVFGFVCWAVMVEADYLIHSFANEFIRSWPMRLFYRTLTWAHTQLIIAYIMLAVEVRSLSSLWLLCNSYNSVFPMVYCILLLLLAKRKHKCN
# Assay: Inhibition of human GOAT octanoylation activity expressed in insect Sf9 cell membranes using GSSFLCAcDan as substrate after 1 hr by reverse phase HPLC with fluorescence detection method
row,IC50 [µM],Structure (SMILES)
1,6,CC(C)C[C@H](NC(=O)[C@H](Cc1ccccc1)NC(=O)[C@H](Cn1cc(Cc2ccccc2)nn1)NC(=O)[C@H](CO)NC(=O)CN)C(N)=O
2,0.7,CC(C)C[C@H](NC(=O)[C@H](Cc1ccccc1)NC(=O)[C@H](Cn1cc(CCCc2ccccc2)nn1)NC(=O)[C@H](CO)NC(=O)CN)C(N)=O
3,> 1,CC(C)C[C@H](NC(=O)[C@H](Cc1ccccc1)NC(=O)[C@H](Cn1cc(CCCCc2ccccc2)nn1)NC(=O)[C@H](CO)NC(=O)CN)C(N)=O
4,3.8,CC(C)C[C@H](NC(=O)[C@H](Cc1ccccc1)NC(=O)[C@H](Cn1cc(CCc2ccccc2)nn1)NC(=O)[C@H](CO)NC(=O)CN)C(N)=O
